{"source": "paper PMC4904262", "about": "(ACS Medicinal Chemistry Letters, 2016)", "key": {"PKA": {"molecular_target": "PKA (Homo sapiens, UniProt P17612)", "details": "1 µM, ATP at Km"}, "Caco-2": {"test_system": "Caco-2", "details": "human"}, "[1]": {"details": "rat, in vivo, 0.2 mg/kg"}, "aldehyde oxidase": {"molecular_target": "aldehyde oxidase (Homo sapiens, UniProt Q06278)"}, "in vivo": {"experiment": "in vivo", "details": "mouse"}, "in vitro": {"experiment": "in vitro", "details": "rat, microsomes"}, "[2]": {"molecular_target": "CDK19 in the presence of cyclin C (Homo sapiens, UniProt Q9BWU1)", "sequence (Q9BWU1 whole entry)": "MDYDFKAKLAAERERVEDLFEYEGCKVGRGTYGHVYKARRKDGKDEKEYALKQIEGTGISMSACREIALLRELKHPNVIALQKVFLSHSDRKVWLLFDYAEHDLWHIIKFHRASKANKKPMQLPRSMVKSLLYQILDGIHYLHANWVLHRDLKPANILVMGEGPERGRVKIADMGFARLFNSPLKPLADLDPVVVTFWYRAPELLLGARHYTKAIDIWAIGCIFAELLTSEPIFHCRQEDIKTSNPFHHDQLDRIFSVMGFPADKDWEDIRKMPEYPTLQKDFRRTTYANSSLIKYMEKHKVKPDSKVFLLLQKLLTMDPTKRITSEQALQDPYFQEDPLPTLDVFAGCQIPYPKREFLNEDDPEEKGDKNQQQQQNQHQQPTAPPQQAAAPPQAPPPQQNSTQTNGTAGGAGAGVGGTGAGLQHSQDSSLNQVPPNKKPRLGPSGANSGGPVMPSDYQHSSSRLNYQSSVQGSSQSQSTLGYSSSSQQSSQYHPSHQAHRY", "sequence (P24863 whole entry partner)": "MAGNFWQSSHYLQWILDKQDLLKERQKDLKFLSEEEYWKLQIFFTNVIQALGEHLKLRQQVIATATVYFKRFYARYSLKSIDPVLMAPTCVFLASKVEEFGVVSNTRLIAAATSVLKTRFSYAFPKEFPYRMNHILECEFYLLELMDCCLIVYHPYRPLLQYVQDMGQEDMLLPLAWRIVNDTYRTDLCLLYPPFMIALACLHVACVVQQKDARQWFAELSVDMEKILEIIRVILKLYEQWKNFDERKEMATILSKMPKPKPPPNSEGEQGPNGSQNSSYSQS", "experiment": "biochemical", "details": "read-out: CDK19 residence time ± SD"}, "ABL(T315I)": {"molecular_target": "ABL(T315I) (Homo sapiens, UniProt P00519, T315I)", "details": "1 µM, ATP at Km"}, "CK1(Y)": {"test_system": "CK1(Y)", "details": "1 µM, ATP at Km"}, "FLT3(D835Y)": {"molecular_target": "FLT3(D835Y) (Homo sapiens, UniProt P36888, D835Y)", "details": "1 µM, ATP at Km"}, "MKK4": {"molecular_target": "MKK4 (Mus musculus, UniProt P47809)", "sequence (P47809 2-397 limits assumed)": "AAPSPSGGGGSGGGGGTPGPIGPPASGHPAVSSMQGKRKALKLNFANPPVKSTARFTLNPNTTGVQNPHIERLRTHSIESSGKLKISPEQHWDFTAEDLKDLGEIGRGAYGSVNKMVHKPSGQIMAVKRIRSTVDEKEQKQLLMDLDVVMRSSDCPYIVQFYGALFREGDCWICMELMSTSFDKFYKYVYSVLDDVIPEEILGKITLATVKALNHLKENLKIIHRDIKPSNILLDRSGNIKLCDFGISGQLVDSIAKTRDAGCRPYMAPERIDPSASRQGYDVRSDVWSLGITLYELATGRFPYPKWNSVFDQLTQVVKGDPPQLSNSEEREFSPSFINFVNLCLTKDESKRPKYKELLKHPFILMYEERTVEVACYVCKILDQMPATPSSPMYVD", "details": "1 µM, ATP at Km"}, "SAPK2A(T106M)": {"molecular_target": "SAPK2A(T106M) (Homo sapiens, UniProt Q16539, T106M)", "details": "1 µM, ATP at Km"}, "EGFR(T790M,L858R)": {"molecular_target": "EGFR(T790M,L858R) (Homo sapiens, UniProt P00533, L858R/T790M)", "details": "1 µM, ATP at Km"}, "[…](D842V)": {"molecular_target": "[…](D842V) (Homo sapiens, UniProt P16234, D842V)", "sequence (P16234 24-1089 D842V)": "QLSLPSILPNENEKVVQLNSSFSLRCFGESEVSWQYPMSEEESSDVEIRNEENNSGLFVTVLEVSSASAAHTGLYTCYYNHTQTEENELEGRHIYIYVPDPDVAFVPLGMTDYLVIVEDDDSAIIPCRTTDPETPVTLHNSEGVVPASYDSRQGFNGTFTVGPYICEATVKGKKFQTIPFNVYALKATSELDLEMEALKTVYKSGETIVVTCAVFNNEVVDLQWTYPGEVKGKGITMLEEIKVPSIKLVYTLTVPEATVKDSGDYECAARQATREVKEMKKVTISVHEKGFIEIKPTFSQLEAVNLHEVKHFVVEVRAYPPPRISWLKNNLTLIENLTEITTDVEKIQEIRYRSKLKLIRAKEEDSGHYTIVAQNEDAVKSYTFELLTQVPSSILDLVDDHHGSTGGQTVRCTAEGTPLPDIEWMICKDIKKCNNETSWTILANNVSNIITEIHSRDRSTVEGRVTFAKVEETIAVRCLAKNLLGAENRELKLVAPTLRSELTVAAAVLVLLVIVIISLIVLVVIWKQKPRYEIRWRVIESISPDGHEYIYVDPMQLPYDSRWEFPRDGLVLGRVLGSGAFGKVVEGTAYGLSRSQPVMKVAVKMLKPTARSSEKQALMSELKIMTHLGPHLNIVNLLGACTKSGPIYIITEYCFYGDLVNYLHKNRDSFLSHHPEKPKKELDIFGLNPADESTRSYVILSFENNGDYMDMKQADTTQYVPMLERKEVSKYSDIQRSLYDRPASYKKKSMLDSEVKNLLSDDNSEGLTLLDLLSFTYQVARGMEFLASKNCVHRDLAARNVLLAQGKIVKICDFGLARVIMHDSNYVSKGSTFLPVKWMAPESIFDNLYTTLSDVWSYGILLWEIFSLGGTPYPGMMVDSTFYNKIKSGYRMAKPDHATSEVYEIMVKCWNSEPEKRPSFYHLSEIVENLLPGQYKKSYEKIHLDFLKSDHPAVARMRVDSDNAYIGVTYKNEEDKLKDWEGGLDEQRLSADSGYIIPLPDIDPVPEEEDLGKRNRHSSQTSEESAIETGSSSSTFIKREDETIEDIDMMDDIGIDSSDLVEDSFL", "details": "1 µM, ATP at Km"}, "CHK2(I157T)": {"molecular_target": "CHK2(I157T) (Homo sapiens, UniProt O96017, I157T)", "details": "1 µM, ATP at Km"}, "FGFR2(N549H)": {"molecular_target": "FGFR2(N549H) (Homo sapiens, UniProt P21802, N549H)", "sequence (P21802 22-821 N549H)": "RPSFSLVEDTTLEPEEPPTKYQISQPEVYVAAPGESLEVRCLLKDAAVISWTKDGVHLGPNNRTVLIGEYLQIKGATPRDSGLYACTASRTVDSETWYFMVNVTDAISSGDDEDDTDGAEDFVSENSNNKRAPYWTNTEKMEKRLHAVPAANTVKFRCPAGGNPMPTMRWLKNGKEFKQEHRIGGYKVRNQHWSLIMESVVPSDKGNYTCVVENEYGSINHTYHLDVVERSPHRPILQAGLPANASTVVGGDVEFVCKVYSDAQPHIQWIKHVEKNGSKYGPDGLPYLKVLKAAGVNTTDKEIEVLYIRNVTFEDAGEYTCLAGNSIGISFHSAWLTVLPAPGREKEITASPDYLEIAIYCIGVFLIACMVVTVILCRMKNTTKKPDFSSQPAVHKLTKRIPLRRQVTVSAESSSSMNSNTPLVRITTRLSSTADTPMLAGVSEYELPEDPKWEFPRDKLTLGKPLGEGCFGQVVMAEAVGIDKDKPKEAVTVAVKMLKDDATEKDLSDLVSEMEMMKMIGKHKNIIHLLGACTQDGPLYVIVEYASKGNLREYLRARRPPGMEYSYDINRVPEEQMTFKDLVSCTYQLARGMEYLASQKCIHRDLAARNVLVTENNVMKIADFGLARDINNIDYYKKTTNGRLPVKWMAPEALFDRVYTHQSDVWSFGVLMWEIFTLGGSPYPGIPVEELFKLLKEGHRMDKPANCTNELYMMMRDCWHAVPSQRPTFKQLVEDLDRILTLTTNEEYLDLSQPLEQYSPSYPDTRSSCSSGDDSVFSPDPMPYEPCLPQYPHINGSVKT", "details": "1 µM, ATP at Km"}, "SRC(1-530)": {"molecular_target": "SRC(1-530) (Homo sapiens, UniProt P12931)", "details": "1 µM, ATP at Km"}, "SRC(T341M)": {"molecular_target": "SRC(T341M) (Homo sapiens, UniProt P12931, T341M)", "details": "1 µM, ATP at Km"}, "ABL (Q252H)": {"molecular_target": "ABL (Q252H) (Homo sapiens, UniProt P00519, Q252H)", "details": "1 µM, ATP at Km"}, "RET (V804L)": {"molecular_target": "RET (V804L) (Homo sapiens, UniProt P07949, V804L)", "details": "1 µM, ATP at Km"}, "RET(V804M)": {"molecular_target": "RET(V804M) (Homo sapiens, UniProt P07949, V804M)", "details": "1 µM, ATP at Km"}, "PI3 KINASE (E542K/P85A)": {"molecular_target": "PI3 KINASE (E542K/P85A) (Homo sapiens, UniProt P42336, E542K)", "sequence (P42336 whole entry E542K)": "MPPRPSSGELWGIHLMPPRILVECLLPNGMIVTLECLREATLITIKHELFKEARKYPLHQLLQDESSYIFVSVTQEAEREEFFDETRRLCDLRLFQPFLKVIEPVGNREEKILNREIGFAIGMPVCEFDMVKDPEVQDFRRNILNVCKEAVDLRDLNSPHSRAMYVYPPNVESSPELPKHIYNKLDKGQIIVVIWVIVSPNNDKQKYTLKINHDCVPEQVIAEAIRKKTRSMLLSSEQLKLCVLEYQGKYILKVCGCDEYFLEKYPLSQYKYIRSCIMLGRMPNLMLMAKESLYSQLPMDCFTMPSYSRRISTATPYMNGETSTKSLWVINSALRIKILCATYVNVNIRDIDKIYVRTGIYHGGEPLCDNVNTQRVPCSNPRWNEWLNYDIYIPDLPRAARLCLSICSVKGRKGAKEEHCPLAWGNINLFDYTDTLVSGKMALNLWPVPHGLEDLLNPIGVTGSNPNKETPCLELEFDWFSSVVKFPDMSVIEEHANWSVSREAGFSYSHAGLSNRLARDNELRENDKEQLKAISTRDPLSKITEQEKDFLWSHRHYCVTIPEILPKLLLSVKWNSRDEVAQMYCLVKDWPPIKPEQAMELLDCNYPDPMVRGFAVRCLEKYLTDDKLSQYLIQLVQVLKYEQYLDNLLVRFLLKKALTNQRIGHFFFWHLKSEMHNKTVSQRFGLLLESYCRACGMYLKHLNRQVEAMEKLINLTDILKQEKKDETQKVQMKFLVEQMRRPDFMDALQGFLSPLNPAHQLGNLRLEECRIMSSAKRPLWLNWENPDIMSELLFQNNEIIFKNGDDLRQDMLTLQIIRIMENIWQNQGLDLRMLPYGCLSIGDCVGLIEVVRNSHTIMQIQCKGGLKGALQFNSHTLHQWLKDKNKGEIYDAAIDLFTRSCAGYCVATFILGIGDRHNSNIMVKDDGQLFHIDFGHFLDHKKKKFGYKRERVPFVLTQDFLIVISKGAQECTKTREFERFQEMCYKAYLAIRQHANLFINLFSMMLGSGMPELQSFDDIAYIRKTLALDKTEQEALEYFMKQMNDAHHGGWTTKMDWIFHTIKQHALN", "sequence (P27986 2-724 partner)": "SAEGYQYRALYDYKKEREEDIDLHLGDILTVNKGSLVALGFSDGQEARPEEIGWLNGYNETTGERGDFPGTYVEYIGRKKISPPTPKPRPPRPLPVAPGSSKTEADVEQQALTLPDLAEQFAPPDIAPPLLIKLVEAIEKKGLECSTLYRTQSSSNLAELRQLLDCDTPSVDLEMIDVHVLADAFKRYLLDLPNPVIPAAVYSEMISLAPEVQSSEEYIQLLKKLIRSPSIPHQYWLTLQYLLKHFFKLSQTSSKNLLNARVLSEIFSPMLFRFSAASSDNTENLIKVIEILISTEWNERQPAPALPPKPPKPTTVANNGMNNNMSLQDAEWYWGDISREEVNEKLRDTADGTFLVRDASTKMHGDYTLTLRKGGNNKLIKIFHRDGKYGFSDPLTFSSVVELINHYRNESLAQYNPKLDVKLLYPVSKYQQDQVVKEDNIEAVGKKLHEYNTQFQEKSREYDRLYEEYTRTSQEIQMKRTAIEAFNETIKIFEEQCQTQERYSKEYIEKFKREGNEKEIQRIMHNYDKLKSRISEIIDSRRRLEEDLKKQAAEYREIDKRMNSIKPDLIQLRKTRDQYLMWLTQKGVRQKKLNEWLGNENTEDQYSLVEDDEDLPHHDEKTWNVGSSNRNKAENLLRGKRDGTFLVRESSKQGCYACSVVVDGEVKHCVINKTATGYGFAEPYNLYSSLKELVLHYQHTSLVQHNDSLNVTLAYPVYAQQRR", "details": "PI3 KINASE (E542K/P85A) (first listing); 1 µM; ATP at Km"}, "PI3 KINASE (H1047R/P85A)": {"molecular_target": "PI3 KINASE (H1047R/P85A) (Homo sapiens, UniProt P42336, H1047R)", "sequence (P42336 whole entry H1047R)": "as the sequence (P42336 whole entry E542K) above, with K542E, H1047R counted along it", "sequence (P27986 2-724 partner)": "as the sequence (P27986 2-724 partner) above", "details": "1 µM, ATP at Km"}, "PI3 KINASE (P65A)": {"test_system": "PI3 KINASE (P65A)", "details": "1 µM, ATP at Km"}, "cMET (D1246H)": {"molecular_target": "cMET (D1246H) (Homo sapiens, UniProt P08581, D1228H)", "details": "1 µM, ATP at Km"}, "HCK": {"molecular_target": "HCK (Homo sapiens, UniProt P08631)", "details": "HCK (second listing, page 11); 1 µM; ATP at Km"}, "LCK": {"molecular_target": "LCK (Homo sapiens, UniProt P06239)", "details": "LCK (second listing, page 11); 1 µM; ATP at Km"}}}
{"compound": "COC1CN(C(=O)c2ccc3c(N)ncc(-c4ccc(-c5cnn(C)c5)cc4)c3n2)C1", "note": "[Compound 51]", "values": [{"measurement": "percentage effect", "setting": "PKA", "value": -1, "unit": "%"}, {"measurement": "Caco-2 ER", "setting": "Caco-2", "value": 5.9}, {"measurement": "Caco-2 PappA-B", "setting": "Caco-2", "value": "28.6 × 10^–6 cm/s"}, {"measurement": "% in feces (iv dosing)", "setting": "[1]", "value": 36, "unit": "%"}, {"measurement": "AO substrate (Enzyme assay)", "setting": "aldehyde oxidase", "value": "No"}, {"measurement": "Vd", "setting": "in vivo; iv, 0.2 mg/kg", "value": 1.87, "unit": "L/kg"}, {"measurement": "clearance", "setting": "in vivo; iv, 0.2 mg/kg", "value": 32.3, "unit": "mL/min/kg"}, {"measurement": "bioavailability", "setting": "in vivo; po, 0.5 mg/kg", "value": 18, "unit": "%"}, {"measurement": "microsomal CLint at 1 µM", "setting": "in vitro", "value": 26, "unit": "µL/min/mg"}, {"measurement": "residence time", "setting": "[2]", "value": "31 ± 3", "unit": "min"}]}
{"compound": "COC1CN(C(=O)c2ccc3c(N)ncc(-c4ccc(-c5cnn(C)c5)cc4)c3c2)C1", "note": "[Compound 59]", "values": [{"measurement": "percentage effect", "setting": "ABL(T315I)", "value": 5, "unit": "%"}, {"measurement": "percentage effect", "setting": "CK1(Y)", "value": 4, "unit": "%"}, {"measurement": "percentage effect", "setting": "FLT3(D835Y)", "value": -10, "unit": "%"}, {"measurement": "percentage effect", "setting": "MKK4", "value": 3, "unit": "%"}, {"measurement": "percentage effect", "setting": "SAPK2A(T106M)", "value": 1, "unit": "%"}, {"measurement": "percentage effect", "setting": "EGFR(T790M,L858R)", "value": -2, "unit": "%"}, {"measurement": "percentage effect", "setting": "[…](D842V)", "value": 1, "unit": "%"}, {"measurement": "percentage effect", "setting": "CHK2(I157T)", "value": -9, "unit": "%"}, {"measurement": "percentage effect", "setting": "FGFR2(N549H)", "value": -14, "unit": "%"}, {"measurement": "percentage effect", "setting": "SRC(1-530)", "value": -3, "unit": "%"}, {"measurement": "percentage effect", "setting": "SRC(T341M)", "value": -18, "unit": "%"}, {"measurement": "percentage effect", "setting": "ABL (Q252H)", "value": 9, "unit": "%"}, {"measurement": "percentage effect", "setting": "RET (V804L)", "value": -9, "unit": "%"}, {"measurement": "percentage effect", "setting": "RET(V804M)", "value": 7, "unit": "%"}, {"measurement": "percentage effect", "setting": "PI3 KINASE (E542K/P85A)", "value": -3, "unit": "%"}, {"measurement": "percentage effect", "setting": "PI3 KINASE (H1047R/P85A)", "value": -2, "unit": "%"}, {"measurement": "percentage effect", "setting": "PI3 KINASE (P65A)", "value": -4, "unit": "%"}, {"measurement": "percentage effect", "setting": "cMET (D1246H)", "value": 1, "unit": "%"}, {"measurement": "percentage effect", "setting": "HCK", "value": 0, "unit": "%"}, {"measurement": "percentage effect", "setting": "LCK", "value": 4, "unit": "%"}]}
